From ChEMBL document CHEMBL4818999, “Pyrido[2, 3-d]pyrimidin-7(8H)-ones as new selective orally bioavailable Threonine Tyrosine Kinase (TTK) inhibitors” (Eur J Med Chem, 2021)

Tests used:
[1] = biological target: T1, Dual specificity protein kinase TTK (Homo sapiens, UniProt P33981); test: Binding affinity to wild-type human partial length TTK (N505 to V798 residues) expressed in bacterial expression system by active site-directed competition binding based Kinomescan method
T1 sequence (P33981 whole entry): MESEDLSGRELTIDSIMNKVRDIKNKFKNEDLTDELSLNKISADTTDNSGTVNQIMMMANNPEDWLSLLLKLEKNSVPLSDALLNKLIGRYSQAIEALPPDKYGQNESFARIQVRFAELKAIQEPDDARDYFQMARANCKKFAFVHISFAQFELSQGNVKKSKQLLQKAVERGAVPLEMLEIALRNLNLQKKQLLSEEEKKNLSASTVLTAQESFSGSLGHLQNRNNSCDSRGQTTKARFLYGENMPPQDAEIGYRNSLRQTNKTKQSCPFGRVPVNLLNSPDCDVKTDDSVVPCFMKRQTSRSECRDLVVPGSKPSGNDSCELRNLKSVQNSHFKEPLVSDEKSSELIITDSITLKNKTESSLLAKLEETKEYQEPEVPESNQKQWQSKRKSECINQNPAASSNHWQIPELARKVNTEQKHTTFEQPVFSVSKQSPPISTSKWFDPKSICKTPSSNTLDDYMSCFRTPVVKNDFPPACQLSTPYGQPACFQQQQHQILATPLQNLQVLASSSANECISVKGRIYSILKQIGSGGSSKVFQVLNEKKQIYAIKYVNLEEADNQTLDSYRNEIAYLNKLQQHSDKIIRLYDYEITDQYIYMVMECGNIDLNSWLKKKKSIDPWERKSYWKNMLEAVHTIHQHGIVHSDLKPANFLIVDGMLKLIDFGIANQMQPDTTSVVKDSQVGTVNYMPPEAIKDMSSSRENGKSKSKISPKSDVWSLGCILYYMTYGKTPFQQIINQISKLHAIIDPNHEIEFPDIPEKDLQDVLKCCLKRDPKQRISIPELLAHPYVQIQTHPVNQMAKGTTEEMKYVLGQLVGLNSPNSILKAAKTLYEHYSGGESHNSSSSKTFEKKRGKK

[2] = Half life in Sprague-Dawley rat at 5 mg/kg, iv; type: ADME, organism-based; conditions: in vivo
[3] = Cmax in Sprague-Dawley rat at 5 mg/kg, iv; type: ADME, organism-based; parameters: route intravenous, dose 5 mg/kg; conditions: in vivo
[4] = Half life in Sprague-Dawley rat at 25 mg/kg, po; type: ADME, organism-based; conditions: in vivo
[5] = AUC (0 to infinity) in Sprague-Dawley rat at 5 mg/kg, iv; type: ADME, organism-based; parameters: route intravenous, time infinity, dose 5 mg/kg; conditions: in vivo
[6] = Cmax in Sprague-Dawley rat at 25 mg/kg, po; type: ADME, organism-based; parameters: route oral, dose 25 mg/kg; conditions: in vivo
[7] = biological target: T1, Dual specificity protein kinase TTK; test: Inhibition of recombinant full-length human TTK using MBP as substrate incubated for 40 mins in presence of [gamma33P]ATP by scintillation counting based radiometry assay relative to control
[8] = Clearance in Sprague-Dawley rat at 5 mg/kg, iv; type: ADME, organism-based; conditions: in vivo
[9] = Oral bioavailability in Sprague-Dawley rat at 25 mg/kg; type: ADME, organism-based; conditions: in vivo
[10] = AUC (0 to infinity) in Sprague-Dawley rat at 25 mg/kg, po; type: ADME, organism-based; parameters: time infinity, route oral, dose 25 mg/kg; conditions: in vivo
[11] = system: HCT-116; test: Antitumor activity at human HCT-116 cells xenografted in CB17-SCID mouse assessed as tumor growth inhibition at 20 mg/kg, ip administered once weekly for 16 days relative to control; type: functional; conditions: HCT-116, ip, 384 h, time 16 day, read-out: TGI

Row | Kd [1] [nM] | SMILES | also measured
1 | 0.41 | COc1cc(N2CCN(C)CC2)ccc1Nc1ncc2c(C)cc(=O)n([C@H]3CC[C@@H](NC(=O)C4CC4)CC3)c2n1 | –
2 | 250 | CCC(=O)N1CCC[C@@H](n2c(=O)cc(C)c3cnc(Nc4ccc(N5CCN(C)CC5)cc4OC)nc32)C1 | –
3 | 0.72 | COc1cc(N2CCN(C)CC2)ccc1Nc1ncc2c(C)cc(=O)n([C@H]3CC[C@@H](NC(C)=O)CC3)c2n1 | –
4 | 1.5 | CCC(=O)N[C@H]1CC[C@@H](n2c(=O)cc(CC)c3cnc(Nc4ccc(N5CCN(C)CC5)cc4OC)nc32)CC1 | –
5 | 0.2 | COc1cc(N2CCN(C)CC2)ccc1Nc1ncc2c(C)cc(=O)n([C@H]3CC[C@@H](NC(=O)C(C)(C)C)CC3)c2n1 | –
6 | 2.8 | CCC(=O)N[C@H]1CC[C@H](n2c(=O)cc(C)c3cnc(Nc4ccc(N5CCN(C)CC5)cc4OC)nc32)CC1 | –
7 | 0.63 | CCC(=O)N[C@H]1CC[C@@H](n2c(=O)cc(C)c3cnc(Nc4ccc(N5CCN(C)CC5)cc4C)nc32)CC1 | –
8 | 0.17 | COc1cc(N2CCN(C)CC2)ccc1Nc1ncc2cc(C)c(=O)n([C@H]3CC[C@@H](NC(=O)C4CCCCC4)CC3)c2n1 | half-life [2]: 6.2 h; Cmax [3]: 4740 ng/mL; half-life [4]: 7.62 h; AUC(0-inf) [5]: 15500 ng·h/mL; Cmax [6]: 2300 ng/mL; IC50 [7]: 20 nM; clearance [8]: 5.61 mL/min/kg; bioavailability [9]: 39.6%; AUC(0-inf) [10]: 33300 ng·h/mL
9 | > 1000 | CCC(=O)N1CC(n2c(=O)cc(C)c3cnc(Nc4ccc(N5CCN(C)CC5)cc4OC)nc32)C1 | –
10 | 0.12 | COc1cc(N2CCN(C)CC2)ccc1Nc1ncc2c(C)cc(=O)n([C@H]3CC[C@@H](NC(=O)C4CCCC4)CC3)c2n1 | IC50 [7]: 19 nM
11 | 825 | CCC(=O)N[C@H]1CC[C@@H](n2c(=O)cc(-c3ccccc3)c3cnc(Nc4ccc(N5CCN(C)CC5)cc4OC)nc32)CC1 | –
12 | – | CC(=O)O[C@H]1C(=O)[C@@]2(C)[C@H]([C@H](OC(=O)c3ccccc3)[C@]3(O)C[C@H](OC(=O)[C@H](O)[C@@H](NC(=O)c4ccccc4)c4ccccc4)C(C)=C1C3(C)C)[C@]1(OC(C)=O)CO[C@@H]1C[C@@H]2O [PACLITAXEL] | inhibition in vivo at 20 mg/kg [11]: 52%
13 | 9.3 | CCC(=O)N1CCC(n2c(=O)cc(C)c3cnc(Nc4ccc(N5CCN(C)CC5)cc4OC)nc32)CC1 | –
14 | 145 | CCC(=O)N1CC[C@H](n2c(=O)cc(C)c3cnc(Nc4ccc(N5CCN(C)CC5)cc4OC)nc32)C1 | –
15 | 0.71 | CCC(=O)N[C@H]1CC[C@@H](n2c(=O)cc(C)c3cnc(Nc4ccc(N5CCN(C)CC5)cc4OC)nc32)CC1 | –
16 | 0.5 | COc1cc(N2CCN(C)CC2)ccc1Nc1ncc2c(C)cc(=O)n([C@H]3CC[C@@H](NC(=O)C(C)C)CC3)c2n1 | –
17 | 0.56 | COc1cc(N2CCN(C)CC2)ccc1Nc1ncc2c(C)cc(=O)n([C@H]3CC[C@@H](NC(=O)C45CC6CC(CC(C6)C4)C5)CC3)c2n1 | –
18 | 0.41 | CCC(=O)N[C@H]1CC[C@@H](n2c(=O)ccc3cnc(Nc4ccc(N5CCN(C)CC5)cc4OC)nc32)CC1 | –
19 | 0.17 | COc1cc(N2CCN(C)CC2)ccc1Nc1ncc2cc(C)c(=O)n([C@H]3CC[C@@H](NC(=O)C4CCCC4)CC3)c2n1 | IC50 [7]: 11 nM
20 | 1.1 | COc1cc(N2CCN(C)CC2)ccc1Nc1ncc2c(C)cc(=O)n([C@H]3CC[C@@H](NC(=O)c4cccc5ccccc45)CC3)c2n1 | –
21 | 7.9 | CCC(=O)N[C@H]1CC[C@@H](n2c(=O)cc(C3CC3)c3cnc(Nc4ccc(N5CCN(C)CC5)cc4OC)nc32)CC1 | IC50 [7]: 50 nM
22 | 310 | CCC(=O)N1CC[C@@H](n2c(=O)cc(C)c3cnc(Nc4ccc(N5CCN(C)CC5)cc4OC)nc32)C1 | –
23 | 4.2 | CCC(=O)N[C@H]1CC[C@@H](n2c(=O)cc(C)c3cnc(Nc4ccc(N5CCN(C)CC5)c(OC)c4)nc32)CC1 | –
24 | 0.3 | COc1cc(N2CCN(C)CC2)ccc1Nc1ncc2c(C)cc(=O)n([C@H]3CC[C@@H](NC(=O)c4ccccc4)CC3)c2n1 | –
25 | 0.29 | CCC(=O)N[C@H]1CC[C@@H](n2c(=O)c(C)cc3cnc(Nc4ccc(N5CCN(C)CC5)cc4OC)nc32)CC1 | –
26 | 3.9 | CCC(=O)N[C@H]1CC[C@@H](n2c(=O)cc(C)c3cnc(Nc4ccc(N5CCN(C)CC5)c(C)c4)nc32)CC1 | –
27 | 6.1 | COc1cc(N2CCN(C)CC2)ccc1Nc1ncc2c(C)cc(=O)n([C@H]3CC[C@@H](NCC4CC4)CC3)c2n1 | –
28 | 190 | C=CC(=O)N1CC[C@H](n2c(=O)cc(C)c3cnc(Nc4ccc(N5CCN(C)CC5)cc4OC)nc32)C1 | –
29 | 200 | CCC(=O)N1CCC[C@H](n2c(=O)cc(C)c3cnc(Nc4ccc(N5CCN(C)CC5)cc4OC)nc32)C1 | –
